Test results: patent publication US20220079960A1, “USE OF P1P DERIVATIVES AS THERAPEUTIC AGENT FOR SEPSIS” (AXCESO BIOPHARMACO.,LTD., priority 2019, published 2022)
Read-outs that look alike come from different tables or passages of the source.

Columns and labels:
TNF-α = experiment: Inflammatory cytokine (TNF-α) secretion after LPS treatment in macrophages, ELISA; type: cell-based; conditions: Mus musculus
Procedure: The macrophage cell line used in the experiment was Raw 264.7 cell line purchased from ATCC, and Dulbeco's Modified Eagle's Media high glucose (with 10% FBS, 0.5% P/S) was used as a medium for culturing macrophages. Macrophages were cultured at 37° C., 5% CO2 incubator. Macrophages were treated with P1P or cP1P drugs at concentrations of 0.02 μM, 0.1 uM, 0.5 μM and 1 μM, respectively and then LPS of 1 ng/ml after 6 hours, and cultured for 4 hours. And then changes of inflammatory cytokines (Tumor necrosis factor alpha, TNF-α) were measured by the manufacturer's method using ELISA (BD OPTEIAT™). As a comparison group, S1P was used at the same concentration and conditions.
To this end, macrophage cell lines were treated with LPS to increase inflammatory cytokines, and the efficacy of P1P and derivatives thereof on inflammatory cytokine secretion was evaluated. Macrophage cell lines were treated with P1P drug or cP1P drug, and 6 hours later, treated with LPS at a concentration of 500 ng/mL for 4 hours.

[1] = system: Human umbilical vein endothelial cell (HUVEC); experiment: Proliferation of human vascular endothelial cells, MTT assay; type: cell-based; conditions: 10 nM, 100 nM and 1000 nM, 48 hours, compared with S1P (FIG. 6)
Procedure: Human umbilical vein endothelial cell (HUVEC) used in the experiment was purchased from Promocell, and cultured in an incubator at 37° C., 5% CO2 using Endothelial Cell Growth Medium 2 as a culture medium. To confirm the proliferation effect of P1P drug, HUVEC cells were treated with P1P or cP1P drug at concentrations of 10 nM, 100 nM and 1000 nM, respectively, and cultured for 48 hours. The cell proliferation rate was measured according to the manufacturer's method using MTT assay (Molecular Probes). As a comparison group, S1P was used at the same concentration and conditions.

Balb/c mice = experiment: LPS sepsis mouse model: effect of drugs on survival rate; type: in vivo; conditions: for Survival rate (%): drug 40 μg/mouse i.p. 5 minutes after LPS
Procedure: For the experiment of the survival rate of mice after LPS administration, 7-week-old Balb/c mice were purchased from Orient Bio and adapted to the laboratory. Then, LPS (Sigma) was dissolved in phosphate buffer solution (PBS) at a concentration of 400 μg/mouse, 200 μg/mouse, 170 μg/mouse, 150 μg/mouse, 125 μg/mouse, and 100 μg/mouse, and 100 uL of each was injected into the abdominal cavity of a mouse.
(§1) To this end, the LPS concentration was determined to be 150 μg/mouse, and the P1P drug was intraperitoneally injected at a concentration of 40 μg/mouse 5 and 60 minutes after intraperitoneal injection of LPS. The survival rate was measured by observation for 72 hours at 12 hour intervals. In another experiment, P1P drug was injected intraperitoneally at a concentration of 40 μg/mouse 1 hour after intraperitoneal injection of LPS of 125 μg/mouse to compare the survival rate of mice. In the same way, the survival rate was measured while changing the P1P concentration.
as §1, with “cP1P” for “P1P”, “mice.” for “mice. In the same way, the survival rate was measured while changing the P1P concentration.”
Soybean lecithin called Lipoid S-75 was used to prepare the liposome, and 20 mg of lecithin was dissolved in 1 mL of chloroform. P1P or cP1P was dissolved in 1 mL of chloroform/methanol (2:1, v/v) solvent in an amount of 2 mg, 1 mg or 0.5 mg, respectively, and mixed with the lecithin solution. A thin lipid film was made by removing the organic solvent from the mixed solution using nitrogen gas or a rotary evaporator. The thin lipid film was stored in a vacuum desiccator overnight to completely remove the organic solvent remaining on the film. 5 mL of a phosphate buffer solution was added to the thin lipid film and stirred for 30 minutes to prepare multilamellar vesicles (MLV, large liposomes). The prepared MLV particles were sonicated for 2 minutes in an ice bath to make small unilamellar vesicles (SUV) of 100 nm or less. This sonication process was repeated twice. Only the supernatant obtained by centrifugation of the prepared SUV at 12000 rpm for 5 minutes was used in the experiment. Liposomes containing P1P or cP1P drug (P1P-liposomes/cP1P-liposomes) were used in an experiment to increase the survival rate of mice using LPS. To this end, LPS of 170 μg/mouse, which is higher than the conventional LPS concentration (125-150 μg/mouse), was injected into the abdominal cavity of the mouse. P1P or cP1P drug was administered at 40 μg/mouse 5 minute after LPS administration, and 100 μl of P1P-liposomes and cP1P-liposomes (P1P and cP1P of about 40 μg/mouse) were injected into the abdominal cavity of the mouse, and the survival rate change was determined over time.
The effect of P1P to treat sepsis was tested under the same conditions as described in the experimental method. P1P of 40 μg/mouse was administered intraperitoneally and intravenously 5 minutes after intraperitoneal injection of LPS of 150 μg/mouse. […] When the P1P drug was administered 1 hour after LPS administration, the survival rate was about 40% for intraperitoneal injection and 20% for intravenous injection (FIG. 2b). These indicate that P1P effectively ameliorated sepsis induced after LPS treatment. Furthermore, P1P of 40 μg/mouse was administered by intraperitoneal injection 1 hour after intraperitoneal injection of 125 μg/mouse of LPS. […] In the case of 20 μg/mouse concentration, the survival rate was 80%, and in the case of 10 μg/mouse concentration, the survival rate was about 60% (FIG. 3b). It was confirmed that P1P increased the survival rate in a concentration-dependent manner. […]

Solubility in water = type: physicochemical
[2] = system: Human umbilical vein endothelial cell (HUVEC); experiment: Survival of human vascular endothelial cells under oxidative stress (H2O2), MTT assay; type: cell-based; conditions: for cell viability compared with S1P: 500 μM hydrogen peroxide (FIG. 7)
Procedure: Human umbilical vein endothelial cell (HUVEC) used in the experiment was purchased from Promocell, and cultured in an incubator at 37° C., 5% CO2 using Endothelial Cell Growth Medium 2 as a culture medium. To confirm the efficacy of P1P drug in an oxidative stress environment, HUVEC cells were pretreated with P1P or cP1P at concentrations of 10 nM, 100 nM, and 1000 nM for 1 hour, and then exposed to oxidative stress by treatment with 500 μM hydrogen peroxide (H2O2) for 6 hours. The efficacy of the […] drug on the survival of HUVEC cells after 6 hours of exposure to oxidative stress was confirmed by MTT assay. As a comparison group, S1P was used at the same concentration and conditions.
In addition to causing inflammation, LPS promotes oxidative stress to promote vascular endothelial cell death. To analyze the effect of the present drugs, oxidative stress was induced in vascular endothelial cells by treatment with 500 μM of hydrogen peroxide.

SIRT1 = experiment: Expression of SIRT1 in macrophages, RT-PCR; type: cell-based; conditions: Raw 264.7 macrophages; 0.01-1 μM; RT-PCR 24 hours later (FIG. 8)
Procedure: The macrophage cell line used in the experiment was Raw 264.7 cell line purchased from ATCC, and Dulbeco's Modified Eagle's Media high glucose (with 10% FBS, 0.5% P/S) was used as a medium for culturing macrophages. Macrophages were cultured in an incubator at 37° C., 5% CO2. Macrophages were treated with P1P or cP1P drug at concentrations of 0.01 μM, 0.1 μM, and 1 μM, respectively and then LPS of 100 ng/ml after 4 hours, and cultured for 24 hours. The change in SIRT1 protein was measured by RT-PCR.
Expression of SIRT1 protein is very important in the treatment of sepsis. When sepsis is induced, the synthesis and activity of SIRT1 protein is reduced. Macrophages were treated with P1P drugs during culture, and the expression level of SIRT1 protein was confirmed by RT-PCR 24 hours later.

[3] = S1P administered directly; cited from earlier work
[4] = RAW264.7, read-out: inhibitory efficacy on inflammatory cytokine (TNF-α) production
[5] = LPS 125 μg/mouse i.p., drug 40 μg/mouse i.p. 1 hour after LPS (FIG. 3a, FIG. 4b)
[6] = LPS 150 μg/mouse i.p., drug 40 μg/mouse intraperitoneally 5 minutes after LPS (FIG. 2a, FIG. 4a)

Compound: CCCCCCCCCCCCCC[C@@H](O)[C@H](O)[C@H](N)COP(=O)(O)O (stereo in doubt) [P1P, Phytosphingosine-1-phosphate]
- inhibition at 1 µM (TNF-α; [4]): 49%
- efficacy on proliferation of vascular endothelial cells [1]: higher than that of S1P
- survival rate (Balb/c mice; [5]): 100%
- survival rate (Balb/c mice; LPS 125 μg/mouse, drug 10 μg/mouse 60 minutes after LPS (FIG. 3b)): about 60%
- survival rate (Balb/c mice; LPS 125 μg/mouse, drug 20 μg/mouse 60 minutes after LPS (FIG. 3b)): 80%
- survival of mice while varying drug concentration (Balb/c mice; LPS 125 μg/mouse, drug 40 μg/mouse 60 minutes after LPS, up to 72 hours (FIG. 3b)): all of them survived up to 72 hours
- Survival rate (%) (Balb/c mice; LPS 150 μg/mouse i.p., 0 h): 100%
- Survival rate (%) (Balb/c mice; LPS 150 μg/mouse i.p., 12 h): 100%
- Survival rate (%) (Balb/c mice; LPS 150 μg/mouse i.p., 24 h): 100%
- Survival rate (%) (Balb/c mice; LPS 150 μg/mouse i.p., 48 h): 80%
- Survival rate (%) (Balb/c mice; LPS 150 μg/mouse i.p., 72 h): 80%
- survival rate (Balb/c mice; [6]): ≥ 80%
- survival rate (Balb/c mice; LPS 150 μg/mouse i.p., drug 40 μg/mouse intravenously 5 minutes after LPS (FIG. 2a)): ≥ 80%
- survival rate (Balb/c mice; LPS 150 μg/mouse i.p., drug by intraperitoneal injection 1 hour after LPS (FIG. 2b)): about 40%
- survival rate (Balb/c mice; LPS 150 μg/mouse i.p., drug by intravenous injection 1 hour after LPS (FIG. 2b)): 20%
- Survival rate (%) (Balb/c mice; LPS 170 μg/mouse i.p., 0 h): 100%
- Survival rate (%) (Balb/c mice; LPS 170 μg/mouse i.p., 12 h): 80%
- Survival rate (%) (Balb/c mice; LPS 170 μg/mouse i.p., 24 h): 40%
- Survival rate (%) (Balb/c mice; LPS 170 μg/mouse i.p., 36 h): 20%
- Survival rate (%) (Balb/c mice; LPS 170 μg/mouse i.p., 48 h): 20%
- Survival rate (%) (Balb/c mice; LPS 170 μg/mouse i.p., 72 h): 20%
- solubility in water (Solubility in water): poorly soluble in water
- cell viability compared with S1P [2]: higher cell viability than S1P
- cell viability ([2]; 500 μM hydrogen peroxide, untreated control about 40%): ≥ 70%
- expression level of SIRT1 protein (SIRT1): increased SIRT1 protein even at very low concentrations

Compound: CCCCCCCCc1ccc(CCC(N)(CO)CO)cc1 [FTY720, fingolimod, reference compound]
- Survival rate (%) (Balb/c mice; LPS 150 μg/mouse i.p., 0 h): 100%
- Survival rate (%) (Balb/c mice; LPS 150 μg/mouse i.p., 12 h): 100%
- Survival rate (%) (Balb/c mice; LPS 150 μg/mouse i.p., 24 h): 40%
- Survival rate (%) (Balb/c mice; LPS 150 μg/mouse i.p., 36 h): 20%
- Survival rate (%) (Balb/c mice; LPS 150 μg/mouse i.p., 48 h): 20%
- Survival rate (%) (Balb/c mice; LPS 150 μg/mouse i.p., 72 h): 20%

Compound: CCCCCCCCCCCCC/C=C/[C@@H](O)[C@@H](N)COP(=O)(O)O [S1P, sphingosine-1-phosphate, reference compound]
- inhibition at 1 µM (TNF-α; RAW264.7, 1 μM, Raw 264.7 macrophages, drug 6 hours before LPS, LPS 4 hours, ELISA, read-out: inhibitory efficacy on inflammatory cytokine (TNF-α) production): 19%
- degradation rate in the blood [3]: high degradation rate in the blood
- Survival rate (%) (Balb/c mice; LPS 150 μg/mouse i.p., 0 h): 100%
- Survival rate (%) (Balb/c mice; LPS 150 μg/mouse i.p., 12 h): 100%
- Survival rate (%) (Balb/c mice; LPS 150 μg/mouse i.p., 36 h): 40%
- Survival rate (%) (Balb/c mice; LPS 150 μg/mouse i.p., 48 h): 40%
- Survival rate (%) (Balb/c mice; LPS 150 μg/mouse i.p., 72 h): 40%

Compound: CCCCCCCCCCCCCC[C@@H](O)[C@H]1OP(=O)(O)OC[C@@H]1N [cP1P, O-cyclic P1P]
- inhibition at 1 µM (TNF-α; [4]): 35%
- efficacy on proliferation of vascular endothelial cells [1]: higher than that of S1P
- survival rate (Balb/c mice; [5]): about 100%
- survival rate (Balb/c mice; [6]): ≥ 70%
- Survival rate (%) (Balb/c mice; LPS 170 μg/mouse i.p., 0 h): 100%
- Survival rate (%) (Balb/c mice; LPS 170 μg/mouse i.p., 12 h): 80%
- Survival rate (%) (Balb/c mice; LPS 170 μg/mouse i.p., 24 h): 60%
- Survival rate (%) (Balb/c mice; LPS 170 μg/mouse i.p., 36 h): 40%
- Survival rate (%) (Balb/c mice; LPS 170 μg/mouse i.p., 48 h): 40%
- Survival rate (%) (Balb/c mice; LPS 170 μg/mouse i.p., 72 h): 40%
- solubility in water (Solubility in water): poorly soluble in water
- cell viability compared with S1P [2]: higher cell viability than S1P
- expression level of SIRT1 protein (SIRT1): increased SIRT1 protein even at very low concentrations
